In brackets after ≈: the same amount, converted by molar mass. Blank lines part the entries; values can stand above or below the compound they belong to. Activity calls are given as the source filed them. The calls are words filed in the database; no cut-off is given here.
How the values were obtained:
[1] = molecular target: Metabotropic glutamate receptor 5 (Homo sapiens, UniProt P41594); assay: Negative allosteric modulation of human recombinant mGluR5 expressed in HEK293 cells assessed as L-glutamate-induced intracellular calcium mobilization incubated for 20 mins before L-glutamate addition; format: functional, cell-based
Chain of Metabotropic glutamate receptor 5 (P41594 whole entry): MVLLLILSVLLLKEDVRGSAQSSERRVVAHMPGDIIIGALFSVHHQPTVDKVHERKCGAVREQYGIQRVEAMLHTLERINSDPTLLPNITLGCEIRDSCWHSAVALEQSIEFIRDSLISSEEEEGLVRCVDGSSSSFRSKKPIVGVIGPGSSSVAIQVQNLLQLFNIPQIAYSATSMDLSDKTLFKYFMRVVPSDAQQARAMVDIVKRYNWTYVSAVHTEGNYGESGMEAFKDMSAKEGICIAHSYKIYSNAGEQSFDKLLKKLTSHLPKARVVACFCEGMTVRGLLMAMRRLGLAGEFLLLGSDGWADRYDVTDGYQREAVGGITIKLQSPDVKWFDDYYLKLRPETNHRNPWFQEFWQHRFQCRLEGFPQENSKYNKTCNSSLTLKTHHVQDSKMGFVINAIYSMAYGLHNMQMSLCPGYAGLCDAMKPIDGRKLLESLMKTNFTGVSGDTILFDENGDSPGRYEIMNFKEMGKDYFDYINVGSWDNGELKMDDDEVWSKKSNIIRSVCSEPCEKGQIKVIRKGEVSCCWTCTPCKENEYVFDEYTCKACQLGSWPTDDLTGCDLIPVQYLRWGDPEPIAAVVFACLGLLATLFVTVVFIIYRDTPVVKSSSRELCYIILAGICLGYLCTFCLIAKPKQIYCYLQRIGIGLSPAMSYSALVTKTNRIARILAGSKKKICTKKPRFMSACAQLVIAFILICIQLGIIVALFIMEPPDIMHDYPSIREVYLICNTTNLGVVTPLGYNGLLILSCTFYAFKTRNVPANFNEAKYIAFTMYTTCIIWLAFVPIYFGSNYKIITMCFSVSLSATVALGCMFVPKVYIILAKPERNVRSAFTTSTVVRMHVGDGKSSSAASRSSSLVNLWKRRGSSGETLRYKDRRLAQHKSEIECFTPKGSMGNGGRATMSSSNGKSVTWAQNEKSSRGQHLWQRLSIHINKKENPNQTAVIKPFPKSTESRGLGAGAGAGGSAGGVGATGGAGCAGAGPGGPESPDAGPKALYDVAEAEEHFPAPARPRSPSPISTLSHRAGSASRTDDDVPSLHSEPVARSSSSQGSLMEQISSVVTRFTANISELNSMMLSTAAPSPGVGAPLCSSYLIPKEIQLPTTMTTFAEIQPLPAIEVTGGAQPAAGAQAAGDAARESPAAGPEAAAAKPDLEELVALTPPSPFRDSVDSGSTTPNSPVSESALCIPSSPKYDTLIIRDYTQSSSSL

[2] = Permeability of the compound at pH 7.4 by PAMPA; format: ADME; settings: read-out: permeability
[3] = molecular target: T1, Nuclear receptor subfamily 1 group I member 2 (Homo sapiens, UniProt O75469); assay: Induction of human PXR assessed as CYP450 activation; format: ADME
T1 sequence (O75469 whole entry): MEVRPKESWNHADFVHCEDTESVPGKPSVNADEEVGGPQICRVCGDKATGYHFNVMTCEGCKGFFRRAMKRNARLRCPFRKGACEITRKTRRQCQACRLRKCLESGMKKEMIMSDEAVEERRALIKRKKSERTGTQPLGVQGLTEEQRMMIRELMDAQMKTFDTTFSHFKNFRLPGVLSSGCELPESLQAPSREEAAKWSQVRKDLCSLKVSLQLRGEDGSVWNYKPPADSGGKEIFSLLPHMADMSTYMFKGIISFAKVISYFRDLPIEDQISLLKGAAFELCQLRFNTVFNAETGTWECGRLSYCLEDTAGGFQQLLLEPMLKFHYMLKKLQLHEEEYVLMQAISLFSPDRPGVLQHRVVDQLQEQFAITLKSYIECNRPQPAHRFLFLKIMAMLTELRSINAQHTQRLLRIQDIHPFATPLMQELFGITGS

[4] = Aqueous solubility of the compound at pH 1.2; format: physicochemical
[5] = molecular target: Voltage-gated inwardly rectifying potassium channel KCNH2 (Homo sapiens, UniProt Q12809); assay: Inhibition of human ERG
Chain of Voltage-gated inwardly rectifying potassium channel KCNH2 (Q12809 whole entry): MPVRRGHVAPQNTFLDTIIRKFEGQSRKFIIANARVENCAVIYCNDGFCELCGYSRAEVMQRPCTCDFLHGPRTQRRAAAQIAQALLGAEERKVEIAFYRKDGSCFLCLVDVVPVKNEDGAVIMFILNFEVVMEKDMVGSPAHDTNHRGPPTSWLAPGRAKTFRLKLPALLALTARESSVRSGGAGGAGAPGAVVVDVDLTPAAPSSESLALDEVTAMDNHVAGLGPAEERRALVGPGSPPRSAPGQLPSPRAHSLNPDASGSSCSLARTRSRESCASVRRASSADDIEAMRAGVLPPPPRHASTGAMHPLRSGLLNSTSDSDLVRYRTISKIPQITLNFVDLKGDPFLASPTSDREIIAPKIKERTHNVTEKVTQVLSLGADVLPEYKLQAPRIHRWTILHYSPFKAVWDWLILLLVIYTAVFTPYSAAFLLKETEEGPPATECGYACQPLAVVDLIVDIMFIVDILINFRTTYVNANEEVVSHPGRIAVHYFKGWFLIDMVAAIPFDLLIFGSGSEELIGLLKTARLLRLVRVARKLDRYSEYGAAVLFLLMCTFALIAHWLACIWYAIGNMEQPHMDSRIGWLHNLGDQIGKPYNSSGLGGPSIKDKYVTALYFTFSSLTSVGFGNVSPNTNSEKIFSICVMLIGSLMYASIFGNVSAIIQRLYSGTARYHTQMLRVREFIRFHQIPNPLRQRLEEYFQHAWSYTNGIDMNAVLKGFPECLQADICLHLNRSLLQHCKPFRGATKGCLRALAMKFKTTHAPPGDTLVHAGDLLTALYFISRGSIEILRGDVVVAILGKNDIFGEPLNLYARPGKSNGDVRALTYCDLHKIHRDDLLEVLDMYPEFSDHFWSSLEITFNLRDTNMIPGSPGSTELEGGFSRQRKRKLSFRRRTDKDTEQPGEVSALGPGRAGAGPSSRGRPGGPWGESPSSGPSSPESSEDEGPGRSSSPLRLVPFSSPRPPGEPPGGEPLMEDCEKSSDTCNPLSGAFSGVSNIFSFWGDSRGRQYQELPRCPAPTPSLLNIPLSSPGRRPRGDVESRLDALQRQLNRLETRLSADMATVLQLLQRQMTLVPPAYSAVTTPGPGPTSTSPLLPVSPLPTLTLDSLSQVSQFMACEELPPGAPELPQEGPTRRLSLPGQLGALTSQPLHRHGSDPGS

Cytochrome P450 2C9 = Cytochrome P450 2C9 (Homo sapiens, UniProt P11712); assay: Inhibition of CYP2C9 in human liver microsomes using diclofenac as substrate after 10 mins in presence of NADPH by LC/MS/MS analysis; format: ADME
Chain of Cytochrome P450 2C9 (P11712 whole entry): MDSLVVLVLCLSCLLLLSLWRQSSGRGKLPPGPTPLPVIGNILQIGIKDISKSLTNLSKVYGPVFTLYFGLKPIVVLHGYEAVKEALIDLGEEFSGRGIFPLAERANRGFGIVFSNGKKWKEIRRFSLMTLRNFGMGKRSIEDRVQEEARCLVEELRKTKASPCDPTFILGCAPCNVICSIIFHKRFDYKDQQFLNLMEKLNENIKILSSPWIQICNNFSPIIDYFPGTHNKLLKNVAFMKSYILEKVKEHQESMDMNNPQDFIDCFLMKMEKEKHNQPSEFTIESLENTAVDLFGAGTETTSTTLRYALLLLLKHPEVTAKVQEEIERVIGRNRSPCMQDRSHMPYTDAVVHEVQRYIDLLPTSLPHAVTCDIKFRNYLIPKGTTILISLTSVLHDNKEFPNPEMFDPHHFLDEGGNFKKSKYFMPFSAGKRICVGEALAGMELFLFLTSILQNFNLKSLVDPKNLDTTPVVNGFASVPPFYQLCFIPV

Cytochrome P450 3A4 = Cytochrome P450 3A4 (Homo sapiens, UniProt P08684); assay: Inhibition of CYP3A4 in human liver microsomes using midazolam as substrate after 10 mins in presence of NADPH by LC/MS/MS analysis; format: ADME
[6] = Clearance in rat plasma at 1 mg/kg, iv after 5 mins to 24 hrs; format: ADME, organism-based
Cytochrome P450 1A2 = molecular target: T2, Cytochrome P450 1A2 (Homo sapiens, UniProt P05177); assay: Inhibition of CYP1A2 in human liver microsomes using phenacetin as substrate after 10 mins in presence of NADPH by LC/MS/MS analysis; format: ADME
T2 sequence (P05177 whole entry): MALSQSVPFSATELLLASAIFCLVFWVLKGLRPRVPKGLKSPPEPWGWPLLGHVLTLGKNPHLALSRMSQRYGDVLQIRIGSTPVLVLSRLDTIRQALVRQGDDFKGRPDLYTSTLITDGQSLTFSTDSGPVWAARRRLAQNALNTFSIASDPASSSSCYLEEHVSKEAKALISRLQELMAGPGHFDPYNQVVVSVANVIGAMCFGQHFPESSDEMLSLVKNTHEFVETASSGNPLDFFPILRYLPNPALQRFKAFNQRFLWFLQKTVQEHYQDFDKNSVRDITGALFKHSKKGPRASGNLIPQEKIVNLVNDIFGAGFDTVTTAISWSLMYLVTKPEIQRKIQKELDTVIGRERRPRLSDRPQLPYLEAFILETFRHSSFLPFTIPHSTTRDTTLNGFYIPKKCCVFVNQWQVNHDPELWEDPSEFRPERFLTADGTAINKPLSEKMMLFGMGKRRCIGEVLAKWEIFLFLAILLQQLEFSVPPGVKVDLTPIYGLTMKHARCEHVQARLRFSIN

[7] = Volume of distribution in steady state in rat plasma at 1 mg/kg, iv after 5 mins to 24 hrs; format: ADME, organism-based; settings: read-out: Vdss
P-gp (ABCB1) = P-gp (ABCB1) (Homo sapiens, UniProt P08183); assay: Substrate activity at P-gp (unknown origin) assessed as efflux ratio; format: ADME; settings: not told
Chain of P-gp (ABCB1) (P08183 whole entry): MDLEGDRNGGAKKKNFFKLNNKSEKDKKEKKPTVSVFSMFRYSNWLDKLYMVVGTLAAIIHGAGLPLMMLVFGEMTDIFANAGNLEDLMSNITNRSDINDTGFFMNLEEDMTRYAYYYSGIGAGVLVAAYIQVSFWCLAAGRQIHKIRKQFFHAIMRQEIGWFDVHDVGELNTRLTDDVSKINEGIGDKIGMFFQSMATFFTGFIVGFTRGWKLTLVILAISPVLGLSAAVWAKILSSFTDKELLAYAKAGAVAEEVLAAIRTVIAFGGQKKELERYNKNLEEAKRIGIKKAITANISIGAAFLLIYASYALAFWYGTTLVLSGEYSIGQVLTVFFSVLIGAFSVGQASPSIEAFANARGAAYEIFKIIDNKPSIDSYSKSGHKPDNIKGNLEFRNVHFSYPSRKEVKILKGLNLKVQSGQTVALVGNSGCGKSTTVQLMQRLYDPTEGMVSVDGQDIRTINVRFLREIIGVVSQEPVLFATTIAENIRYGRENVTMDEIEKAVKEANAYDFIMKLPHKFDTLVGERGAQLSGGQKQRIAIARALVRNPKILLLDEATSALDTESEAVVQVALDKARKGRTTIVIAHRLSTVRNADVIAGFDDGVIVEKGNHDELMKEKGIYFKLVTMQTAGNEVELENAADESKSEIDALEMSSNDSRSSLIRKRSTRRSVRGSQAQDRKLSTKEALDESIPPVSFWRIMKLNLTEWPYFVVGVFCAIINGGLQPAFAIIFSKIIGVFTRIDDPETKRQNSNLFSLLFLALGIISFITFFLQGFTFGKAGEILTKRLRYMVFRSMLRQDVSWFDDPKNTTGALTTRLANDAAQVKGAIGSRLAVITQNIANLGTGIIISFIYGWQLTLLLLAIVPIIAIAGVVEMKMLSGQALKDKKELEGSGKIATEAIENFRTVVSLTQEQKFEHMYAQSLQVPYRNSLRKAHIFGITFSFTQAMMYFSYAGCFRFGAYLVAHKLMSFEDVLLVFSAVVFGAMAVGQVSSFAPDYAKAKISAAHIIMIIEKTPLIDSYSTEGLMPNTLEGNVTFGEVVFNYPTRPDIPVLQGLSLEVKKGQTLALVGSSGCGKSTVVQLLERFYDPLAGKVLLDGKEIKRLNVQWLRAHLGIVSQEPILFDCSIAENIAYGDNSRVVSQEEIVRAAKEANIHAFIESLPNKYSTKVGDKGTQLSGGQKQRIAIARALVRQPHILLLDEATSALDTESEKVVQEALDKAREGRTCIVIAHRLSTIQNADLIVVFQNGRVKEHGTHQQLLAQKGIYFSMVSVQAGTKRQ

Cytochrome P450 2C19 = Cytochrome P450 2C19 (Homo sapiens, UniProt P33261); assay: Inhibition of CYP2C19 in human liver microsomes using (S)-mephenytoin as substrate after 10 mins in presence of NADPH by LC/MS/MS analysis; format: ADME
[8] = Drug uptake in ICR mouse brain at 30 mg/kg, po after 1 hr by LC/MS/MS analysis; format: ADME, organism-based; settings: read-out: Drug uptake
[9] = Metabolic stability in human liver microsomes assessed as compound remaining at 1 uM after 30 mins in presence of NADPH by LC/MS/MS analysis; format: ADME, Microsome; settings: read-out: Stability
[10] = Oral bioavailability in rat plasma at 10 mg/kg, after 15 mins to 24 hrs; format: ADME, organism-based
[11] = molecular target: T3, Aryl hydrocarbon receptor (Homo sapiens, UniProt P35869); assay: Induction of human AhR assessed as CYP450 activation; format: ADME
T3 sequence (P35869 whole entry): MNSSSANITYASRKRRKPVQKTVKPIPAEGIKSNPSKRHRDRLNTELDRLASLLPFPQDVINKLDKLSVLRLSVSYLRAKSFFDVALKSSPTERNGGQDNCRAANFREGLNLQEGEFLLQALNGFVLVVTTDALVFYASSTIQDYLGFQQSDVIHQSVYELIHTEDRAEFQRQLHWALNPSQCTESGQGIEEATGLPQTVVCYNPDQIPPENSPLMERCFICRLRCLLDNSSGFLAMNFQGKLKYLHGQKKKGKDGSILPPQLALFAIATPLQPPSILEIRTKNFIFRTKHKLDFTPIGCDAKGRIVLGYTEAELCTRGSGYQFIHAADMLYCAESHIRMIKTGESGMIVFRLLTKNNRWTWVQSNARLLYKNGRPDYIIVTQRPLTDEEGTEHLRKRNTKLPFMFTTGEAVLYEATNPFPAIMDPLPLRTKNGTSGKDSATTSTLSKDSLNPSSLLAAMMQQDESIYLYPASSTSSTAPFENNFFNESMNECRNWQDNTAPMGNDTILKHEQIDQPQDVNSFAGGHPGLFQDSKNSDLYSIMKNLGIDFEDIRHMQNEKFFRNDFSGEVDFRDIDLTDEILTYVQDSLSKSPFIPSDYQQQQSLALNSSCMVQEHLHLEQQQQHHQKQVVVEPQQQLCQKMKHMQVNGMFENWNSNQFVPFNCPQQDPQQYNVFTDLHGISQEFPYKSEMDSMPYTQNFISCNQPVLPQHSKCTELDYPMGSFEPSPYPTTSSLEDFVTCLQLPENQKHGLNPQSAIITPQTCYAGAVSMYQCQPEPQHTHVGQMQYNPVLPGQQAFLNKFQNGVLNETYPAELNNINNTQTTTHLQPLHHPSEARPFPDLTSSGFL

[12] = Unbound drug concentration in ICR mouse brain at 30 mg/kg, po after 1 hr by LC/MS/MS analysis; format: ADME, organism-based; settings: in vivo
Cytochrome P450 2D6 = Cytochrome P450 2D6 (Homo sapiens, UniProt P10635); assay: Inhibition of CYP2D6 in human liver microsomes using bufuralol as substrate after 10 mins in presence of NADPH by LC/MS/MS analysis; format: ADME
Chain of Cytochrome P450 2D6 (P10635 whole entry): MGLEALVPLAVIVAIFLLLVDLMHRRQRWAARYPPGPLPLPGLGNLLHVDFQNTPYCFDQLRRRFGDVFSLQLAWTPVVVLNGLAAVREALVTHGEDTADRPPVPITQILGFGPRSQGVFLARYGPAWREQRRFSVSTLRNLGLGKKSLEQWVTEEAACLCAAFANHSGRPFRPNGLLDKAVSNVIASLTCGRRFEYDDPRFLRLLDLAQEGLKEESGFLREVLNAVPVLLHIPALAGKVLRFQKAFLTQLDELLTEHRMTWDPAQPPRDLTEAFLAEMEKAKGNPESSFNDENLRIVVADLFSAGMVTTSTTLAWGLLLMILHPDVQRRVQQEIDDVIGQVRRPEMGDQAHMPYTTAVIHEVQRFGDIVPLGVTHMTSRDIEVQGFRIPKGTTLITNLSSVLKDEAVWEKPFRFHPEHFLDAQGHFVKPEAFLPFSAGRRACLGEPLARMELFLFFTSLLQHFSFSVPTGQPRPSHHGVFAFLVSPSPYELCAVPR

[13] = Aqueous solubility of the compound at pH 7.4; format: physicochemical
Cytochrome P450 2C8 = molecular target: T4, Cytochrome P450 2C8 (Homo sapiens, UniProt P10632); assay: Inhibition of CYP2C8 in human liver microsomes using amodiaquin as substrate after 10 mins in presence of NADPH by LC/MS/MS analysis; format: ADME
T4 sequence (P10632 whole entry): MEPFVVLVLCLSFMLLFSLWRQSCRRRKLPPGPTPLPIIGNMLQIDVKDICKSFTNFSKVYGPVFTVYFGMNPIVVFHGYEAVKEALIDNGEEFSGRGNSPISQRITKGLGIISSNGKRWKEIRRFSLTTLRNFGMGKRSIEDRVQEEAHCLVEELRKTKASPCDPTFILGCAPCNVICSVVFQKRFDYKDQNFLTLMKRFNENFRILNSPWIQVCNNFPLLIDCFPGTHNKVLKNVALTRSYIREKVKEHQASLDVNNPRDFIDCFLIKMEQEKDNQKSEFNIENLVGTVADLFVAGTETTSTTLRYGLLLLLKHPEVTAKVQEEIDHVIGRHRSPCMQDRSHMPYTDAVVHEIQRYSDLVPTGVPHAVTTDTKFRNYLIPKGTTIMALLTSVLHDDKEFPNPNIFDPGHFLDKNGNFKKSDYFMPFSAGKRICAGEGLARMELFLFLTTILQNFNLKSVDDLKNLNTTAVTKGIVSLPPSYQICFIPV

Mus musculus = assay: Antidepressant activity in CD1(ICR) mouse assessed as decrease in immobility time at 30 mg/kg, po after 1 hr by tail suspension test; format: functional, organism-based
[14] = Ratio of drug level in brain to plasma in ICR mouse at 30 mg/kg, po after 1 hr by LC/MS/MS analysis; format: ADME, organism-based; settings: read-out: BPR
[15] = Metabolic stability in rat liver microsomes assessed as compound remaining at 1 uM after 30 mins in presence of NADPH by LC/MS/MS analysis; format: ADME, Microsome; settings: read-out: Stability
Cytochrome P450 2A6 = molecular target: T5, Cytochrome P450 2A6 (Homo sapiens, UniProt P11509); assay: Inhibition of CYP2A6 in human liver microsomes using coumarin as substrate after 10 mins in presence of NADPH by LC/MS/MS analysis; format: ADME
T5 sequence (P11509 whole entry): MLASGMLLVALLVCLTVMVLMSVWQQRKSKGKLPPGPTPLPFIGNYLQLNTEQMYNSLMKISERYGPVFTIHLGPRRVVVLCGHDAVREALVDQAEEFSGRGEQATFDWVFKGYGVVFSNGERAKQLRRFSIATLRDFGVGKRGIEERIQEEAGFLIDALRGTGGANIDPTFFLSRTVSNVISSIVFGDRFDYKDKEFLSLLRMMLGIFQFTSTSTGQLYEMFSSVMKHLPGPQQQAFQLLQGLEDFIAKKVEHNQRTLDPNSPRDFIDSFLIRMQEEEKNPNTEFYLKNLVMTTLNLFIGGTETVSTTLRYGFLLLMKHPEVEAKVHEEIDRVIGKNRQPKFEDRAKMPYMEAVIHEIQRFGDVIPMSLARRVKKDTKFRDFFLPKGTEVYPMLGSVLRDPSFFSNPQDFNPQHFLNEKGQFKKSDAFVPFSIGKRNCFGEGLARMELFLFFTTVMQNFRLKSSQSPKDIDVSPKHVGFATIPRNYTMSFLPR

[16] = AUC(0 to infinity) in rat plasma at 10 mg/kg, po after 15 mins to 24 hrs; format: ADME, organism-based; design: dose 10 mg/kg, route oral, time infinity
[17] = Protein binding in ICR mouse brain at 30 mg/kg, po after 1 hr by LC/MS/MS analysis; format: ADME, organism-based; settings: read-out: PB (converted)
[18] = Half life in rat plasma at 1 mg/kg, iv after 5 mins to 24 hrs; format: ADME, organism-based
[19] = Plasma concentration in ICR mouse at 30 mg/kg, po after 1 hr by LC/MS/MS analysis; format: ADME, organism-based
[20] = Cmax in rat plasma at 10 mg/kg, po after 15 mins to 24 hrs; format: ADME, organism-based; design: dose 10 mg/kg, route oral
[21] = AUC(0 to infinity) in rat plasma at 1 mg/kg, iv after 5 mins to 24 hrs; format: ADME, organism-based; design: dose 1 mg/kg, route intravenous, time infinity

IC50 [1]: 150 nM
SMILES: Cc1cccc(C(=O)N2CCn3nc(-c4ccc(F)cn4)cc3C2)c1

Papp [2]: 37 ×10⁻⁶ cm/s | Activity [3]: Not Active | solubility [4]: 79 µg/mL (≈ 211 µM) | IC50 (Cytochrome P450 2C9): > 40000 nM | IC50 (Cytochrome P450 3A4): > 40000 nM | clearance [6]: 2.3 mL/min/kg | IC50 (Cytochrome P450 1A2): > 40000 nM | Vd [7]: 1.5 L/kg | efflux ratio (P-gp (ABCB1)): 1.2 | IC50 (Cytochrome P450 2C19): > 40000 nM | concentration at 1 h [8]: 29.5 µM | remaining at 0.5 h, 1 µM [9]: > 97% | bioavailability [10]: 95% | Activity [11]: Not Active | Drug uptake(free) [12]: 1.38 µM | IC50 (Cytochrome P450 2D6): > 40000 nM | solubility [13]: 7 µg/mL (≈ 18.7 µM) | IC50 (Cytochrome P450 2C8): > 40000 nM | IC50 [1]: 75 nM | Kp at 1 h [14]: 1.38 | remaining at 0.5 h, 1 µM [15]: > 97% | IC50 (Cytochrome P450 2A6): > 40000 nM | AUC(0-inf) [16]: 68700 ng·h/mL | fraction unbound at 1 h [17]: 0.05 | half-life [18]: 9.2 h | concentration at 1 h [19]: 21.4 µM | Cmax [20]: 2930 ng/mL | AUC(0-inf) [21]: 7220 ng·h/mL
SMILES: O=C(c1cc(F)cc(Cl)c1)N1CCn2nc(-c3ccc(F)cn3)cc2C1
IC50 [5]: 15000 nM | Activity (Mus musculus): Active

IC50 [1]: 150 nM
SMILES: O=C(c1cccc(Cl)c1)N1CCn2nc(-c3ccc(F)cn3)cc2C1

IC50 [1]: 164 nM
SMILES: O=C(c1ccccc1)N1CCn2nc(-c3ccc(F)cn3)cc2C1

IC50 [1]: 568 nM
SMILES: Cc1cccc(-c2cc3n(n2)CCN(C(=O)c2ccccc2)C3)n1

IC50 [1]: 176 nM
SMILES: O=C(c1cccc(Cl)c1)N1CCn2nc(-c3ccccn3)cc2C1
